≈ marks a conversion by molar mass, not a printed value. Where two headings read alike, the source gives them in different places.
Columns and labels:
[1] = test system: Mycobacterium tuberculosis H37Rv; assay: Mycobacterium tuberculosis H37Rv Inhibition Assay (Whole Cell Assay); assay type: cell-based; conditions: ATCC 25618 / H37Rv, H37Rv strain (ATCC25618), Middlebrook 7H9, six days at 37° C., resazurin fluorescence after 48 hours
[2] = biological target: T1, InhA (Mycobacterium tuberculosis, UniProt P9WGR1); assay: Mycobacterium tuberculosis InhA Inhibition Assay (Enzyme Assay); assay type: biochemical; conditions: 5 nM InhA, 50 μM DDCoA, 50 μM NADH, PIPES buffer pH 6.8, initial velocities of NADH consumption
T1 construct: made in house; host or cells: E. coli
T1 sequence (P9WGR1 whole entry, looked up): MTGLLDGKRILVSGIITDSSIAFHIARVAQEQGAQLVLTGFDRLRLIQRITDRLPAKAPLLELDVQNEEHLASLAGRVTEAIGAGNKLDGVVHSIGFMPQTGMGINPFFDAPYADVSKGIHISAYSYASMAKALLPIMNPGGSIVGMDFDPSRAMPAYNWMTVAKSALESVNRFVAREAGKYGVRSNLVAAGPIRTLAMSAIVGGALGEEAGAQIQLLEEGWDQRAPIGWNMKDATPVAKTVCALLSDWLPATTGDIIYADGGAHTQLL
Experimental: InhA is able to reduce 2-trans enoyl-CoA esters with concomitant oxidation of NADH to NAD^+. The assay format is based on the kinetic detection of NADH consumption.
Assay for InhA inhibition is carried out with mycobacterium recombinant protein expressed and purified form E. coli. Standard assay conditions for the determination of kinetic constants and inhibitors activity use 5 nM of InhA, 50 μM of Dodecenoyl-CoA synthesized and purified as described by Quémard et al (DDCoA) and 50 μM of NADH as substrates, and it is carried out in 30 mM PIPES buffer pH 6.8, containing 0.05% of BSA. […] Triclosan is used as positive control in every experiment. One μl of compounds is added to the wells containing 25 μl of the DDCoA+NADH mix, the reaction is started by adding 50 μl of the enzyme solution. Fluorescence from NADH is followed at room temperature during 20 minutes in a fluorescent plate reader (excitation at 340 nm; emission at 480 nm). IC50 values are determined using initial velocities of NADH consumption. • Quémard A, Sacchettini J C, Dessen A, et al. Enzymatic characterization of the target for isoniazid in Mycobacterium tuberculosis. Biochemistry 1995; 34:8235-41. Results of the Mycobacterium tuberculosis InhA Inhibition Assay (Enzyme Assay)

| Structure (SMILES) | MIC [1] [µM] | IC50 ([2]; IC50 value) [nM] | IC50 ([2]; read-out: IC50 value) [nM] |
| --- | --- | --- | --- |
| Cc1ccn(C(C)c2nnc(Nc3cc(C)n(Cc4ncccc4F)n3)s2)n1 (stereo not shown) [Example 29, N-{1-[(3-fluoro-2-pyridinyl)methyl]-5-methyl-1H-pyrazol-3-yl}-5-[1-(3-methyl-1H-pyrazol-1-yl)ethyl]-1,3,4-thiadiazol-2-amine] | ≤ 4 | ≤ 125 | – |
| Cc1csc(C(C)(O)c2nnc(Nc3cc(C)n(Cc4ncccc4F)n3)s2)n1 (stereo not shown) [Example 28, 1-[5-({1-[(3-fluoro-2-pyridinyl)methyl]-5-methyl-1H-pyrazol-3-yl}amino)-1,3,4-thiadiazol-2-yl]-1-(4-methyl-1,3-thiazol-2-yl)ethanol] | ≤ 4 | ≤ 116 | – |
| Cc1ccn(C(C)c2nnc(Nc3ccn(Cc4nccc(C)c4F)n3)s2)n1 (stereo not shown) [Example 3, N-{1-[(3-fluoro-4-methyl-2-pyridinyl)methyl]-1H-pyrazol-3-yl}-5-[1-(3-methyl-1H-pyrazol-1-yl)ethyl]-1,3,4-thiadiazol-2-amine] | > 10 | – | ≤ 125 |
| Cc1csc(C(C)(O)c2nnc(Nc3ccn(Cc4nccc5ccccc45)n3)s2)n1 (stereo not shown) [Example 19, 1-(5-{[1-(1-isoquinolinylmethyl)-1H-pyrazol-3-yl]amino}-1,3,4-thiadiazol-2-yl)-1-(4-methyl-1,3-thiazol-2-yl)ethanol] | 4 to 10 (≈ 1.8 to 4.5 µg/mL) | – | ≤ 111 |
| Cc1cc(C)n(C(C)c2nnc(Nc3ccn(Cc4cccnc4F)n3)s2)n1 (stereo not shown) [Example 7, 5-[1-(3,5-dimethyl-1H-pyrazol-1-yl)ethyl]-N-{1-[(2-fluoro-3-pyridinyl)methyl]-1H-pyrazol-3-yl}-1,3,4-thiadiazol-2-amine] | 4 to 10 (≈ 1.59 to 3.98 µg/mL) | – | ≤ 125 |
| Cc1ccn(C(C)c2nnc(Nc3ccn(Cc4csc(C)n4)n3)s2)n1 (stereo not shown) [Example 23, 5-[1-(3-methyl-1H-pyrazol-1-yl)ethyl]-N-{1-[(2-methyl-1,3-thiazol-4-yl)methyl]-1H-pyrazol-3-yl}-1,3,4-thiadiazol-2-amine] | 4 to 10 (≈ 1.55 to 3.87 µg/mL) | – | 129 to 259 |
| Cc1cc(C)n(C(C)c2nnc(Nc3ccn(Cc4nccc(C)c4F)n3)s2)n1 (stereo not shown) [Example 2, 5-[1-(3,5-dimethyl-1H-pyrazol-1-yl)ethyl]-N-{1-[(3-fluoro-4-methyl-2-pyridinyl)methyl]-1H-pyrazol-3-yl}-1,3,4-thiadiazol-2-amine] | ≤ 4 | – | ≤ 121 |
| Cc1cc(C)n(C(C)c2nnc(Nc3ccn(Cc4cccnc4)n3)s2)n1 (stereo not shown) [Example 4, 5-[1-(3,5-dimethyl-1H-pyrazol-1-yl)ethyl]-N-[1-(3-pyridinylmethyl)-1H-pyrazol-3-yl]-1,3,4-thiadiazol-2-amine] | > 10 | – | ≤ 131 |
| Cc1ccn(C(C)c2nnc(Nc3nn(Cc4csc(C)n4)c4ccccc34)s2)n1 (stereo not shown) [Example 46, N-{5-[1-(3-methyl-1H-pyrazol-1-yl)ethyl]-1,3,4-thiadiazol-2-yl}-1-[(2-methyl-1,3-thiazol-4-yl)methyl]-1H-indazol-3-amine] | > 10 | > 1150 | – |
| Cc1csc(C(C)(O)c2nnc(Nc3ccn(Cc4ccc5ccccc5n4)n3)s2)n1 (stereo not shown) [Example 15, 1-(4-methyl-1,3-thiazol-2-yl)-1-(5-{[1-(2-quinolinylmethyl)-1H-pyrazol-3-yl]amino}-1,3,4-thiadiazol-2-yl)ethanol] | ≤ 4 | – | ≤ 111 |
| Cc1csc(C(C)(O)c2nnc(Nc3ccn(Cc4csc(N)n4)n3)s2)n1 (stereo not shown) [Example 17, 1-[5-({1-[(2-amino-1,3-thiazol-4-yl)methyl]-1H-pyrazol-3-yl}amino)-1,3,4-thiadiazol-2-yl]-1-(4-methyl-1,3-thiazol-2-yl)ethanol] | > 10 | 238 to 1190 | – |
| Cc1csc(C(C)(O)c2nnc(Nc3ccn(Cc4cccc(F)n4)n3)s2)n1 (stereo not shown) [Example 18, 1-[5-({1-[(6-fluoro-2-pyridinyl)methyl]-1H-pyrazol-3-yl}amino)-1,3,4-thiadiazol-2-yl]-1-(4-methyl-1,3-thiazol-2-yl)ethanol] | ≤ 1 | – | ≤ 120 |
| Cc1ccn(C(C)c2nnc(Nc3ccn(Cc4cccnc4F)n3)s2)n1 (stereo not shown) [Example 10, N-{1-[(2-fluoro-3-pyridinyl)methyl]-1H-pyrazol-3-yl}-5-[1-(3-methyl-1H-pyrazol-1-yl)ethyl]-1,3,4-thiadiazol-2-amine] | > 10 | 130 to 260 | – |
| Cc1cccc(Cn2ccc(Nc3nnc(C(C)n4nc(C)cc4C)s3)n2)n1 (stereo not shown) [Example 1, 5-[1-(3,5-dimethyl-1H-pyrazol-1-yl)ethyl]-N-{1-[(6-methyl-2-pyridinyl)methyl]-1H-pyrazol-3-yl}-1,3,4-thiadiazol-2-amine] | > 10 | – | ≤ 127 |
| Cc1cc(C)n(C(C)c2nnc(Nc3ccn(Cc4ccccn4)n3)s2)n1 (stereo not shown) [Example 5, 5-[1-(3,5-dimethyl-1H-pyrazol-1-yl)ethyl]-N-[1-(2-pyridinylmethyl)-1H-pyrazol-3-yl]-1,3,4-thiadiazol-2-amine] | > 10 | 263 to 1310 | – |
| Cc1ccn([C@@H](C)c2nnc(Nc3ccn(Cc4ncccc4F)n3)s2)n1 (single isomer, unassigned) [Example 40] | ≤ 4 | ≤ 130 | – |
| Cc1ccn(C(C)c2nnc(Nc3ccn(Cc4ncccc4F)n3)s2)n1 (racemic) [Example 13, N-{1-[(3-fluoro-2-pyridinyl)methyl]-1H-pyrazol-3-yl}-5-[1-(3-methyl-1H-pyrazol-1-yl)ethyl]-1,3,4-thiadiazol-2-amine] | ≤ 4 | – | ≤ 130 |
| Cc1csc(C(C)(O)c2nnc(Nc3ccn(Cc4cn5ccccc5n4)n3)s2)n1 (stereo not shown) [Example 24, 1-(5-{[1-(imidazo[1,2-a]pyridin-2-ylmethyl)-1H-pyrazol-3-yl]amino}-1,3,4-thiadiazol-2-yl)-1-(4-methyl-1,3-thiazol-2-yl)ethanol] | 4 to 10 (≈ 1.75 to 4.39 µg/mL) | – | 114 to 228 |
| Cc1csc(C(C)c2nnc(Nc3ccn(Cc4ncccc4F)n3)s2)n1 (stereo not shown) [Example 34, N-{1-[(3-fluoro-2-pyridinyl)methyl]-1H-pyrazol-3-yl}-5-[1-(4-methyl-1,3-thiazol-2-yl)ethyl]-1,3,4-thiadiazol-2-amine] | ≤ 4 | – | ≤ 125 |
| Cc1csc(C(C)(O)c2nnc(Nc3ccn(Cc4ncccc4F)n3)s2)n1 (racemic) [Example 38, 1-[5-({1-[(3-fluoro-2-pyridinyl)methyl]-1H-pyrazol-3-yl}amino)-1,3,4-thiadiazol-2-yl]-1-(4-methyl-1,3-thiazol-2-yl)ethanol] | ≤ 1 | – | ≤ 120 |
| Cc1cc(C)n(C(C)c2nnc(Nc3ccn(Cc4ncc(Cl)cc4Cl)n3)s2)n1 (stereo not shown) [Example 9, N-{1-[(3,5-dichloro-2-pyridinyl)methyl]-1H-pyrazol-3-yl}-5-[1-(3,5-dimethyl-1H-pyrazol-1-yl)ethyl]-1,3,4-thiadiazol-2-amine] | > 10 | – | ≤ 111 |
| Cc1csc(C(C)(O)c2nnc(Nc3ccn(Cc4ncc(F)cc4F)n3)s2)n1 (stereo not shown) [Example 12, 1-[5-({1-[(3,5-difluoro-2-pyridinyl)methyl]-1H-pyrazol-3-yl}amino)-1,3,4-thiadiazol-2-yl]-1-(4-methyl-1,3-thiazol-2-yl)ethanol] | ≤ 4 | 115 to 230 | – |
| Cc1csc(C(C)(O)c2nnc(Nc3ccn(Cc4nccc(C)c4F)n3)s2)n1 (stereo not shown) [Example 37, 1-[5-({1-[(3-fluoro-4-methyl-2-pyridinyl)methyl]-1H-pyrazol-3-yl}amino)-1,3,4-thiadiazol-2-yl]-1-(4-methyl-1,3-thiazol-2-yl)ethanol] | ≤ 4 | – | ≤ 116 |
